{"source": "paper PMC8879496", "about": "(Pharmaceutics, 2022)", "key": {"SARS-CoV-2 Mpro": {"molecular_target": "SARS-CoV-2 Mpro (Severe acute respiratory syndrome coronavirus 2, UniProt P0DTD1)", "assay": "SARS-CoV-2 Mpro activity assay (assay kit, fluorescence)", "format": "biochemical", "procedure": "SARS-CoV-2 Mpro activity was measured using the SARS-CoV-2 Mpro assay kit (BPS Bioscience, San Diego, CA, USA) according to the manufacturer’s instructions. The samples were evaluated in duplicated, serially diluted concentrations. The fluorescence intensity of low binding, black, 96-well microtiter plates was detected at an excitation wavelength of 360 nm and an emission wavelength of 460 nm using a microplate spectrophotometer (Bio-Tek, Winooski, VT, USA)."}, "CYP2C19": {"molecular_target": "CYP2C19 (Homo sapiens, UniProt P33261)", "sequence (P33261 whole entry)": "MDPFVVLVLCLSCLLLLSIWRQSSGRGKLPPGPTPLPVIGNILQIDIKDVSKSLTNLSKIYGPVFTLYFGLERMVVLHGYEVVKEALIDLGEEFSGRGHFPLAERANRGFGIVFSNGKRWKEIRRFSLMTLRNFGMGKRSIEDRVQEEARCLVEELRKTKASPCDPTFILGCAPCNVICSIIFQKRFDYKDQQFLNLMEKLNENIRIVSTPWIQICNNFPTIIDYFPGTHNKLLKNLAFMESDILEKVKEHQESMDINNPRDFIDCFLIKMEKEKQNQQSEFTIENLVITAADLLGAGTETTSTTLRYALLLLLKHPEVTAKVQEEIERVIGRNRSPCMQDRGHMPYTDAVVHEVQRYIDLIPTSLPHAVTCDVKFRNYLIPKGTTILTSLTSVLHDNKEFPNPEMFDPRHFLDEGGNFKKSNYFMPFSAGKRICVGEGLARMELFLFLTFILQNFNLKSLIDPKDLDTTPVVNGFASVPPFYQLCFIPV", "assay": "CYP450 enzyme inhibition, CYP2C19"}, "[1]": {"system": "NA of H5N1 influenza virus", "settings": "cited from earlier work"}, "CYP2C9": {"molecular_target": "CYP2C9 (Homo sapiens, UniProt P11712)", "sequence (P11712 whole entry)": "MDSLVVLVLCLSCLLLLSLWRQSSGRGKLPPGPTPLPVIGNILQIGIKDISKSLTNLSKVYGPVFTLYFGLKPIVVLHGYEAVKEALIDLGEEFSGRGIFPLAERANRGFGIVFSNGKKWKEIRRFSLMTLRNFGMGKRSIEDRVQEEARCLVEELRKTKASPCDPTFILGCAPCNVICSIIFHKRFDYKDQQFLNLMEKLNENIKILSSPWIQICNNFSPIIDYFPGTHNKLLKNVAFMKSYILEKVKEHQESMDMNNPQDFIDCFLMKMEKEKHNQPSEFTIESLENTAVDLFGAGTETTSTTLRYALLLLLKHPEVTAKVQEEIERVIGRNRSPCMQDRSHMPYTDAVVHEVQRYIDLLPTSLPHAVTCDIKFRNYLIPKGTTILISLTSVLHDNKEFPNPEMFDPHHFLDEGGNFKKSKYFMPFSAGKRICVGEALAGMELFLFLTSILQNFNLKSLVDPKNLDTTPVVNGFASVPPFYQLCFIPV", "assay": "CYP450 enzyme inhibition, CYP2C9"}, "[2]": {"assay": "Liver microsomal metabolic stability, mouse", "format": "in vitro ADME", "settings": "mouse liver microsomes 0.5 mg protein/mL, 1 μM, 37 °C", "procedure": "(§1) Liver microsome samples (0.5 mg protein/mL) from mouse, rat, and human (Corning, Glendale, AZ, USA) in PBS and the test compound (final concentration 1 μM) were mixed. Following the addition of the NADPH regenerating solution (Corning), the samples were incubated at 37 °C for 30 min. The reaction was stopped by the addition of ice-cold acetonitrile, and the samples were centrifuged at 4000 rpm for 15 min."}, "Plasma stability, human": {"assay": "Plasma stability, human", "format": "in vitro ADME", "settings": "37 °C, read-out: Plasma Stability (% Remaining), Hum", "procedure": "(§2) Animal plasma (Innovative Research, Inc., Novi, MI, USA) and test compounds (5 μM) were incubated at 37 °C for 4 h. To prevent the reaction, cold acetonitrile was added."}, "SARS-CoV-2": {"system": "SARS-CoV-2", "assay": "microbe, parasite or virus in culture", "format": "cell-based", "settings": "Severe acute respiratory syndrome coronavirus 2, Vero, 24 h; read-out: IC50, SARS-CoV-2 inhibition"}, "C57BL/6 mice": {"system": "C57BL/6 mice", "assay": "Five-day repeated-dose toxicity study", "settings": "male and female mice; for clinical signs and animal death: IP 10 mg/kg, observed for 6 days; for approximately lethal dose: IP 10 mg/kg/day for 5 days"}, "in vitro": {"assay": "in vitro", "settings": "African green monkey"}, "CYP2D6": {"molecular_target": "CYP2D6 (Homo sapiens, UniProt P10635)", "sequence (P10635 whole entry)": "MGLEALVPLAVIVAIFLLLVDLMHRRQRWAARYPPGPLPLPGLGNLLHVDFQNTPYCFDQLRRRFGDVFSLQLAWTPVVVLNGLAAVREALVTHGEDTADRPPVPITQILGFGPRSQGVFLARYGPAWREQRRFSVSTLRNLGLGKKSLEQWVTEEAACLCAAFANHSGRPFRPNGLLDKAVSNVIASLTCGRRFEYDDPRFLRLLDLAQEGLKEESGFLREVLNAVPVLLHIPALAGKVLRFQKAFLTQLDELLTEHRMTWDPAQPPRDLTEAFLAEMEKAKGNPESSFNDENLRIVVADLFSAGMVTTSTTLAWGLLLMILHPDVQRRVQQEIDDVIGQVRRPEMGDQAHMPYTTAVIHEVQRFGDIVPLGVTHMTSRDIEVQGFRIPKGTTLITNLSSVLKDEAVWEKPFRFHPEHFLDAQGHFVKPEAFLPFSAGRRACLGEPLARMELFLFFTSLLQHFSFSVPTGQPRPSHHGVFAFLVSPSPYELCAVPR", "assay": "CYP450 enzyme inhibition, CYP2D6"}, "hERG K+ channel": {"molecular_target": "hERG K+ channel (Homo sapiens, UniProt Q12809)", "sequence (Q12809 whole entry)": "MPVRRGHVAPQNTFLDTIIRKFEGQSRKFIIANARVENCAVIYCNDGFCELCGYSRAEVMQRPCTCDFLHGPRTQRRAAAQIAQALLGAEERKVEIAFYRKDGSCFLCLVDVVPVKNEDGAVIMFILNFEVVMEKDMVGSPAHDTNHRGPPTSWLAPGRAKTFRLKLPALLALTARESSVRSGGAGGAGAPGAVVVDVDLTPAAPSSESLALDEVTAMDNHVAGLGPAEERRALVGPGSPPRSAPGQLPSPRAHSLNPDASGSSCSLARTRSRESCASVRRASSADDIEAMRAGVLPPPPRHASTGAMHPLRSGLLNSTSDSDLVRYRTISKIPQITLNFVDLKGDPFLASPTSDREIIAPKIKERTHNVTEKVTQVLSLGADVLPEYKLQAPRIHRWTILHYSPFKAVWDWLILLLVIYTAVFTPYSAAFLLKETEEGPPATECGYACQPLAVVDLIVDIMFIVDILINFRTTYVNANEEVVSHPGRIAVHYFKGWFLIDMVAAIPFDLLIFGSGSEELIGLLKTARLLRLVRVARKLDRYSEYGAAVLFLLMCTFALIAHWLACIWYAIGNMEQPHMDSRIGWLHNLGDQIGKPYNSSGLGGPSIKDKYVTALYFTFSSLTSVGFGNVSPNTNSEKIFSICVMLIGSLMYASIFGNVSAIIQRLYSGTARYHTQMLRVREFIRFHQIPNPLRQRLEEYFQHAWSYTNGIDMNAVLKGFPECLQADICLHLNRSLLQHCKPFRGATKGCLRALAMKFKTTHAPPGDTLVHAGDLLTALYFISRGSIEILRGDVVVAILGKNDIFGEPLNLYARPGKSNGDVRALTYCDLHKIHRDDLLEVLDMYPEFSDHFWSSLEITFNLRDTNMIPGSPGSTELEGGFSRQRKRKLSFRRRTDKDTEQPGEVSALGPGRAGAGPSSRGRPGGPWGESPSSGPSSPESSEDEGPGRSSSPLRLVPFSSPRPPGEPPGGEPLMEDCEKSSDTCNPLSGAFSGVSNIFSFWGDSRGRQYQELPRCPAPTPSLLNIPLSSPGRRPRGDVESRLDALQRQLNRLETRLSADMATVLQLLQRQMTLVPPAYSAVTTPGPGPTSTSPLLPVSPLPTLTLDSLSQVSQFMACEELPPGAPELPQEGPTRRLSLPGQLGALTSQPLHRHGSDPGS", "assay": "hERG K+ channel automated planar patch clamp assay"}, "CYP1A2": {"molecular_target": "T1, CYP1A2 (Homo sapiens, UniProt P05177)", "T1 sequence (P05177 1-516)": "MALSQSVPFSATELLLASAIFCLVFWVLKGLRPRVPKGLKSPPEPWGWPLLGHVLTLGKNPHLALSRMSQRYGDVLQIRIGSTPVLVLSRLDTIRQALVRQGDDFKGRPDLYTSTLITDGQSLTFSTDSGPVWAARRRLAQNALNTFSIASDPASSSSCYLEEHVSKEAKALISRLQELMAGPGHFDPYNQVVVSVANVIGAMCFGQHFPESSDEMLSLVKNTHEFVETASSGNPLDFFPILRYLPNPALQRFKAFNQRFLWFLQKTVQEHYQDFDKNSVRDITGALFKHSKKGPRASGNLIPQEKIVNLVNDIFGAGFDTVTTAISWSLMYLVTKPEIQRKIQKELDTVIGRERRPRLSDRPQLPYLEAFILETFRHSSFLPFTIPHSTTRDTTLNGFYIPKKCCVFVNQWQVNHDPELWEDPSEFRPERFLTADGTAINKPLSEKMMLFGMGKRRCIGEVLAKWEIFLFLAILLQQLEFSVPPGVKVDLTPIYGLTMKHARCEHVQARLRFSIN", "assay": "CYP450 enzyme inhibition, CYP1A2"}, "influenza virus": {"system": "influenza virus", "settings": "read-out: IC50, anti-influenza virus activity; cited from earlier work"}, "CYP3A4": {"molecular_target": "CYP3A4 (Homo sapiens, UniProt P08684)", "sequence (P08684 whole entry)": "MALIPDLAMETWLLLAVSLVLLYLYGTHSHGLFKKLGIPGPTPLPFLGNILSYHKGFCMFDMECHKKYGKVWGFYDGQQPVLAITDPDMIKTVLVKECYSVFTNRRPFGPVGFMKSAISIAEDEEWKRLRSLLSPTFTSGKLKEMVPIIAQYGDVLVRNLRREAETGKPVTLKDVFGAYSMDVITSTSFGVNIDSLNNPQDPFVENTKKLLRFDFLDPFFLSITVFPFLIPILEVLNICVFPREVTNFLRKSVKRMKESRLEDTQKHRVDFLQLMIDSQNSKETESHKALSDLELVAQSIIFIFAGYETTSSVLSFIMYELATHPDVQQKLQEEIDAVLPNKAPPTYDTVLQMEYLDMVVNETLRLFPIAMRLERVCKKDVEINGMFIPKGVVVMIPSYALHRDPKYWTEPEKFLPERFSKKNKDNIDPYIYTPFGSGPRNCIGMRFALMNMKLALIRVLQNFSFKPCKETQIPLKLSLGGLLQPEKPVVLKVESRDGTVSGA", "assay": "CYP450 enzyme inhibition, CYP3A4"}, "SARS-CoV": {"system": "SARS-CoV", "assay": "microbe, parasite or virus in culture", "format": "cell-based", "settings": "Severe acute respiratory syndrome coronavirus, Vero, 24 h, read-out: IC50, SARS-CoV inhibition"}, "[3]": {"assay": "Pharmacokinetic study in mice", "format": "in vivo", "settings": "for Cmax / Tmax: n = 3", "procedure": "Seven-week-old male ICR mice were purchased from Nara Bio Co., Ltd. (Pyungtaek, Korea) and housed under 24 °C, 50% humidity, and 12 h day/night cycle conditions with access to standard chow and drinking water. Mice were acclimated for 1 week before the experiments. All animal procedures were approved by the KRICT Animal Care and Use Committee (ACUC approval number, DDP-7221). A total of 10 mg/kg of compound in a 5:40:55 ratio of DMSO:PEG400:DW was intraperitoneally or orally administered (n = 3). Blood samples were collected at 0.083–24 h after drug administration through the retro-orbital venous plexus and the plasma fraction was separated by centrifugation (15,000 rpm, 3 min). […] Mean plasma concentration–time data were calculated using noncompartmental methods (Phoenix WinNonlin software version 6.4; Pharsight Corporation, Mountain View, CA, USA)."}, "[4]": {"assay": "Liver microsomal metabolic stability, rat", "format": "in vitro ADME", "settings": "rat liver microsomes 0.5 mg protein/mL, 1 μM, 37 °C", "procedure": "as §1"}, "Plasma stability, rat": {"assay": "Plasma stability, rat", "format": "in vitro ADME", "settings": "37 °C", "procedure": "as §2"}, "MERS-CoV": {"system": "MERS-CoV", "assay": "microbe, parasite or virus in culture", "format": "cell-based", "settings": "Middle East respiratory syndrome-related coronavirus, Vero, 24 h, read-out: IC50, MERS-CoV inhibition, Vero cells, 0.0625 MOI, 24 h post-infection, spike staining"}, "[5]": {"assay": "Liver microsomal metabolic stability, human", "format": "in vitro ADME", "settings": "human liver microsomes 0.5 mg protein/mL, 1 μM, 37 °C", "procedure": "as §1"}, "[6]": {"settings": "male, ICR, mouse, plasma, IP 10 mg/kg"}, "[7]": {"settings": "male, ICR, mouse, plasma, PO 10 mg/kg"}}, "note": "Like-named read-outs stand apart in the source and are kept apart here."}
{"smiles": "CCCC(=O)c1c(O)c(CC2=C(O)C(C)(C)C(O)=C(C(C)=O)C2=O)c(O)c(Cc2c(O)c(CC3=C(O)C(C)(C)C(O)=C(C(C)=O)C3=O)c(O)c(C(=O)CCC)c2O)c1O", "note": "[dryocrassin ABBA, Dryocrassin ABBA]", "values": [{"measurement": "IC50", "setting": "SARS-CoV-2 Mpro", "result": "46.5 ± 1.1", "unit": "µM"}, {"measurement": "IC50", "setting": "CYP2C19", "result": 16.1, "unit": "µM"}, {"measurement": "IC50", "setting": "[1]", "result": "18.6 ± 4.53", "unit": "µM"}, {"measurement": "IC50", "setting": "CYP2C9", "result": 0.4, "unit": "µM"}, {"measurement": "MS (%) (Remaining after 30 min), Mice", "setting": "[2]", "result": "68.3 ± 2.1", "unit": "%"}, {"measurement": "remaining at 4 h, 5 μM", "setting": "Plasma stability, human", "result": "29.7 ± 8.37", "unit": "%"}, {"measurement": "IC50", "setting": "SARS-CoV-2", "result": "22.4 ± 0.73", "unit": "µM"}, {"measurement": "clinical signs and animal death", "setting": "C57BL/6 mice", "result": "No abnormal clinical signs and animal death"}, {"measurement": "approximately lethal dose", "setting": "C57BL/6 mice", "result": "> 10", "unit": "mg/kg"}, {"measurement": "CC50", "setting": "in vitro", "result": "> 50", "unit": "µM"}, {"measurement": "IC50", "setting": "CYP2D6", "result": 13.5, "unit": "µM"}, {"measurement": "inhibition at 10 µM", "setting": "hERG K+ channel", "result": 7.27, "unit": "%"}, {"measurement": "IC50", "setting": "CYP1A2", "result": 14.7, "unit": "µM"}, {"measurement": "IC50", "setting": "influenza virus", "result": 16.5, "unit": "µM"}, {"measurement": "IC50", "setting": "CYP3A4", "result": 8.33, "unit": "µM"}, {"measurement": "IC50", "setting": "SARS-CoV", "result": "0.8 ± 0.07", "unit": "µM"}, {"measurement": "AUC", "setting": "[3]; IP 10 mg/kg, n = 3, 10 mg/kg", "result": "65960 ± 8630", "unit": "ng·h/mL"}, {"measurement": "Cmax", "setting": "[3]; [6]", "result": "12800 ± 1790", "unit": "ng/mL"}, {"measurement": "Tmax", "setting": "[3]; [6]", "result": "1.17 ± 0.76", "unit": "h"}, {"measurement": "half-life", "setting": "[3]; male, ICR, mouse, plasma, IP 10 mg/kg, n = 3, read-out: T1/2 (converted)", "result": "5.5 ± 0.56", "unit": "h"}, {"measurement": "Cmax", "setting": "[3]; [7]", "result": "3640 ± 570", "unit": "ng/mL"}, {"measurement": "Tmax", "setting": "[3]; [7]", "result": "0.67 ± 0.29", "unit": "h"}, {"measurement": "half-life", "setting": "[3]; male, ICR, mouse, plasma, PO 10 mg/kg, n = 3, read-out: T1/2 (converted)", "result": "12.6 ± 3.76", "unit": "h"}, {"measurement": "AUC", "setting": "[3]; male, ICR, mouse, plasma, ip, 10 mg/kg, IP 10 mg/kg, n = 3, read-out: AUC", "result": 65000, "unit": "ng·h/mL"}, {"measurement": "AUC", "setting": "[3]; male, ICR, mouse, plasma, other: intraperitoneal and oral (range over both arms), 10 mg/kg, in vivo, span over IP and PO 10 mg/kg (abstract), read-out: plasma exposure (AUC)", "result": "19300 to 65000", "unit": "ng·h/mL"}, {"measurement": "half-life", "setting": "[3]; male, ICR, mouse, plasma, other: intraperitoneal and oral (range over both arms), in vivo, span over IP and PO 10 mg/kg (abstract), read-out: half-life", "result": "5.5 to 12.6", "unit": "h"}, {"measurement": "AUC", "setting": "[3]; male, ICR, mouse, plasma, po, 10 mg/kg, PO 10 mg/kg, n = 3, read-out: AUC", "result": "19300 ± 1420", "unit": "ng·h/mL"}, {"measurement": "MS (%) (Remaining after 30 min), Rat", "setting": "[4]", "result": ">99", "unit": "%"}, {"measurement": "remaining at 4 h, 5 μM", "setting": "Plasma stability, rat", "result": "67 ± 7.29", "unit": "%"}, {"measurement": "IC50", "setting": "MERS-CoV", "result": "1.31 ± 0.07", "unit": "µM"}, {"measurement": "MS (%) (Remaining after 30 min), Hum", "setting": "[5]", "result": ">99", "unit": "%"}]}
{"smiles": "CCCC(=O)c1c(O)c(CC2=C(O)C(C)(C)C(O)=C(C(C)=O)C2=O)c(O)c(CC2=C(O)C(C)(C)C(O)=C(C(C)=O)C2=O)c1O", "note": "[filixic acid ABA]", "values": [{"measurement": "IC50", "setting": "SARS-CoV-2 Mpro; serially diluted compounds 3.125–100 μM, mean ± SEM, read-out: IC50, SARS-CoV-2 Mpro (3CL) activity", "result": "39.6 ± 1.09", "unit": "µM"}, {"measurement": "IC50", "setting": "[1]", "result": "29.6 ± 2.48", "unit": "µM"}, {"measurement": "IC50", "setting": "SARS-CoV-2", "result": "25.9 ± 0.81", "unit": "µM"}, {"measurement": "clinical signs and animal death", "setting": "C57BL/6 mice", "result": "No abnormal clinical signs and animal death"}, {"measurement": "approximately lethal dose", "setting": "C57BL/6 mice", "result": "> 10", "unit": "mg/kg"}, {"measurement": "CC50", "setting": "in vitro", "result": "> 50", "unit": "µM"}, {"measurement": "IC50", "setting": "SARS-CoV", "result": "4.56 ± 0.21", "unit": "µM"}, {"measurement": "IC50", "setting": "MERS-CoV", "result": "2.68 ± 0.1", "unit": "µM"}]}
